Source: patent US8772480B2, “Inhibitors of PI3 kinase and/or mTOR” (priority 2009, dated 2014)

Tests used:
[1] = system: phosphorylation of Akt at Serine 473 in U87 MG cells; assay: cells; settings: Homo sapiens, U-87 MG, 2 h, read-out: U87Cell IC50, pAkt (Ser 473), U87 MG cells, two hours with compound
Protocol: pAkt Aplhascreen (U87 Cell)
This assay was performed using U87 MG cells. […] The cells were maintained weekly using 0.05% Trypsin (Gibco) and replated in 150 mm TC—Treated Culture Dishes (Corning, Corning, N.Y.).
The first day of the assay, the adherent cells were trypsinized, media was added to the loose cells and cells were mixed to a homogenous mixture. 0.5 ml of the homogenous mixture was counted on the Beckman Coulter® Vi-CELL™ XR (Fullerton, Calif.). 50 frames of cells were counted and the number of viable cells was determined. The cells were then diluted to 0.25 million cells per ml, and centrifuged at 200 rcf for 5 minutes. The media was removed and the cells were reconstituted in fresh media for plating. The cells were plated at 20 μl per well on the PerkinElmer® FlexDrop PLUS in Low Volume 384 Well White Tissue Culture Plates (Corning) with a final cell density of 5K cells per well. The plates were incubated overnight at 37° Celsius, 5% CO2.
After two hours, the media in the cell plates was aspirated using the BioTek® ELx405HT plate washer (Winooski, Vt.) removing the majority of media and compound without disturbing the adherent U87 cells. […] The plates were then incubated at room temperature on a shaker for ten minutes. […] The AlphaScreen® reaction was added to the cell lysate at 6 μl per well using the PerkinElmer® FlexDrop PLUS. The plates were placed in a humid environment to reduce edge effects and incubated overnight at room temperature with restricted air flow in the dark.

PI3Kα = PI3Kα (Homo sapiens (Human), UniProt P42336); settings: read-out: PI3Kα AlphaScreen ® Ki
Chain of PI3Kα (P42336 whole entry): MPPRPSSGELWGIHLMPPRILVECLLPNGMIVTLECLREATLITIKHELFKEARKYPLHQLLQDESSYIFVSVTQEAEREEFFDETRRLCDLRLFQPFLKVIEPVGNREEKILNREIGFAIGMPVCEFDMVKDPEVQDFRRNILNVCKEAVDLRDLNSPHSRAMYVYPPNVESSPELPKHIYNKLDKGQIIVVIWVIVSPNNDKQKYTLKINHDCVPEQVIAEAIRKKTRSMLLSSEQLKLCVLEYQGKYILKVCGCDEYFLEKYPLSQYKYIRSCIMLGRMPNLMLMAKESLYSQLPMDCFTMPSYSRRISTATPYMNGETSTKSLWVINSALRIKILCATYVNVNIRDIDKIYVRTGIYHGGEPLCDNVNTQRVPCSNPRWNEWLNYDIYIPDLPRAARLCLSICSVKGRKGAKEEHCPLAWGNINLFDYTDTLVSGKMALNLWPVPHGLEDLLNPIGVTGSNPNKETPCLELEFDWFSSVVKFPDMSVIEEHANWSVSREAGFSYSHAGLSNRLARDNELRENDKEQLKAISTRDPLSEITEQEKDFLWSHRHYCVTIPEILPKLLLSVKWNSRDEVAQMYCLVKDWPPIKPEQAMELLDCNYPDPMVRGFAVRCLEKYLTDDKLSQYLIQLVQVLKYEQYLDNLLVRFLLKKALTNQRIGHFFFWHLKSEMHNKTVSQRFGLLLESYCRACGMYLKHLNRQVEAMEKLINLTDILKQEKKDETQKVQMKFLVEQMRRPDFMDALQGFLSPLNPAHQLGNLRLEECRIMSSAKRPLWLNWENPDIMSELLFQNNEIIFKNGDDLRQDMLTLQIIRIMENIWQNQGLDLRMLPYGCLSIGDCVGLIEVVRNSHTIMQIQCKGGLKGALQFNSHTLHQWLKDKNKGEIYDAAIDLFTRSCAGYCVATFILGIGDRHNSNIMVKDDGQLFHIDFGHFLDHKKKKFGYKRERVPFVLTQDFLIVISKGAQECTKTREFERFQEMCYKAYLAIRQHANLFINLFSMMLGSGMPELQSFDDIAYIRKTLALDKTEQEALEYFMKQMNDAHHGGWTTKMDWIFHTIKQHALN
Chain of PI3Kα (P27986 whole entry partner): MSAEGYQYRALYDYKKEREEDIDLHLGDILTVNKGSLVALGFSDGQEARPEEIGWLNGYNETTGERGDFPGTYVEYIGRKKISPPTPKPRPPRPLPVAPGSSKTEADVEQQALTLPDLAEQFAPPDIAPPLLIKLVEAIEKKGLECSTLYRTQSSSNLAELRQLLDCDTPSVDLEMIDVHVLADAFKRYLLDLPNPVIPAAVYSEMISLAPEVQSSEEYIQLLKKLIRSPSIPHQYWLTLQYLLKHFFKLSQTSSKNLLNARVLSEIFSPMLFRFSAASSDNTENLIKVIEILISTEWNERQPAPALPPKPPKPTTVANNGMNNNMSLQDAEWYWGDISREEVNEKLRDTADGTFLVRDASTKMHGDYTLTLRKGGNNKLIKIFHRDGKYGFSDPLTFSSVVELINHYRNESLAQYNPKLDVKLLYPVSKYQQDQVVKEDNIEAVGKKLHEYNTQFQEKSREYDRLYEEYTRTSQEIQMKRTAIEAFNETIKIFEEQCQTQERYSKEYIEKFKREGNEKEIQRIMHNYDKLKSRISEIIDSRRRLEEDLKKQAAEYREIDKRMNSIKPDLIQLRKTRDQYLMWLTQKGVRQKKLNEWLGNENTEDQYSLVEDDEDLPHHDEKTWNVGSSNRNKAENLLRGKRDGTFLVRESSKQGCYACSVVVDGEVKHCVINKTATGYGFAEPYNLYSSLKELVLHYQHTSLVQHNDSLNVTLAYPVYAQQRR

| Compound | IC50 [1] | Ki (PI3Kα) |
| --- | --- | --- |
| Cc1nc(N)nc(-c2cc(CN3CCN(S(C)(=O)=O)CC3)cnc2Nc2ccc3ncsc3c2)n1 [Example 241, N-(3-(4-Amino-6-Methyl-1,3,5-Triazin-2-yl)-5-((4-(Methylsulfonyl)Piperazin-1-yl)Methyl)Pyridin-2-yl)Benzo[D]Thiazol-6-Amine] | 87 nM | 43 nM |
| COc1ncc(Nc2ncc(C(C)N3CCN(C(=O)N(C)C)CC3)cc2-c2nc(C)nc(N)n2)cc1F (stereo not drawn) [Example 294, 4-(1-(5-(4-Amino-6-Methyl-1,3,5-Triazin-2-yl)-6-(5-Fluoro-6-Methoxypyridin-3-Ylamino)Pyridin-3-yl)Ethyl)-N,N-Dimethylpiperazine-1-Carboxamide] | 90 nM | 12 nM |
| COc1ccc(Nc2ccccc2-c2nc(C)nc(N)n2)cn1 [Example 239, 4-(2-(6-Methoxypyridin-3-Ylamino)Phenyl)-6-Methyl-1,3,5-Triazin-2-Amine] |  | 396 nM |
| COc1ccc(Nc2ncc(C(N3CCN(S(C)(=O)=O)CC3)C(F)(F)F)cc2-c2nc(C)nc(N)n2)cn1 (stereo not drawn) [Example 321, 4-(2-(6-Methoxypyridin-3-Ylamino)-5-(2,2,2-Trifluoro-1-(4-(Methylsulfonyl)Piperazin-1-yl)Ethyl)Pyridin-3-yl)-6-Methyl-1,3,5-Triazin-2-Amine] | 80 nM | 34 nM |
| COc1ncc(Nc2ncc(C(C)(C)N)cc2-c2nc(C)nc(N)n2)cc1F [Example 278, 4-(5-(2-Aminopropan-2-yl)-2-(5-Fluoro-6-Methoxypyridin-3-Ylamino)Pyridin-3-yl)-6-Methyl-1,3,5-Triazin-2-Amine] | 24 nM | 45 nM |
| Cc1nc(-c2cnccc2Nc2cccc3[nH]ncc23)c2nc[nH]c2n1 [Example 110, N-(3-(2-methyl-9H-purin-6-yl)pyridin-4-yl)-1H-indazol-4-amine] | 2420 nM | 264 nM |
| COc1ccc(Nc2ncc(CNCc3cccnc3)cc2-c2nc(C)nc3[nH]cnc23)cn1 [Example 138, N-(6-methoxypyridin-3-yl)-3-(2-methyl-9H-purin-6-yl)-5-((pyridin-3-ylmethylamino)methyl)pyridin-2-amine] | 172 nM | 48 nM |
| Cc1nc(N)nc(-c2cc(CN3CCNCC3)cnc2Nc2ccc3[nH]cnc3c2)n1 [Example 261, N-(3-(4-Amino-6-Methyl-1,3,5-Triazin-2-yl)-5-(Piperazin-1-Ylmethyl)Pyridin-2-yl)-1H-Benzo[D]Imidazol-5-Amine] | 2720 nM | 69 nM |
| COc1ccc(Nc2ncncc2-c2nc(C)nc(N)n2)cn1 [Example 117, 4-(4-(6-methoxypyridin-3-ylamino)pyrimidin-5-yl)-6-methyl-1,3,5-triazin-2-amine] |  | 18 nM |
| COc1ncc(Nc2ncc(C(C)(C)CO)cc2-c2nc(C)nc(N)n2)cc1F [Example 311, 2-(5-(4-amino-6-methyl-1,3,5-triazin-2-yl)-6-(5-fluoro-6-methoxypyridin-3-ylamino)pyridin-3-yl)-2-methylpropan-1-ol] |  | 8 nM |
| Cc1nc(N)c(F)c(-c2cccnc2Nc2cccc3[nH]ncc23)n1 [Example 29, N-(3-(6-Amino-5-Fluoro-2-Methylpyrimidin-4-yl)Pyridin-2-yl)-1H-Indazol-4-Amine] |  | 802 nM |
| COc1ncc(Nc2ncccc2-c2nc(C)nc(N)n2)cc1F [Example 246, 4-(2-(5-Fluoro-6-Methoxypyridin-3-Ylamino)Pyridin-3-yl)-6-Methyl-1,3,5-Triazin-2-Amine] |  | 19 nM |
| COc1ccc(Nc2cnccc2-c2nc(C)nc(N)n2)cn1 [Example 115, 4-(3-(6-methoxypyridin-3-ylamino)pyridin-4-yl)-6-methyl-1,3,5-triazin-2-amine] |  | 868 nM |
| COc1ncc(Nc2ncc(C(C)(C)O)cc2-c2nc(C)nc(N)n2)cc1F [Example 273, 2-(5-(4-Amino-6-Methyl-1,3,5-Triazin-2-yl)-6-(5-Fluoro-6-Methoxypyridin-3-Ylamino)Pyridin-3-yl)Propan-2-ol] |  | 4 nM |
| Cc1nc(N)nc(-c2cc(C(C)(C)O)cnc2Nc2cncc(F)c2)n1 [Example 352, 2-(5-(4-Amino-6-Methyl-1,3,5-Triazin-2-yl)-6-(5-Fluoropyridin-3-Ylamino)Pyridin-3-yl)Propan-2-ol] |  | 23 nM |
| Cc1nc(N)nc(-c2cc(C(C)(C)O)cnc2Nc2cncc(S(=O)(=O)c3ccccc3)c2)n1 [Example 356, 2-(5-(4-Amino-6-Methyl-1,3,5-Triazin-2-yl)-6-(5-(Phenylsulfonyl)Pyridin-3-Ylamino)Pyridin-3-yl)Propan-2-ol] |  | 58 nM |
| COc1ncc(Nc2ncc(C(O)C(F)(F)F)cc2-c2nc(C)nc(N)n2)cc1F (stereo not drawn) [Example 314, 1-(5-(4-Amino-6-Methyl-1,3,5-Triazin-2-yl)-6-(5-Fluoro-6-Methoxypyridin-3-Ylamino)Pyridin-3-yl)-2,2,2-Trifluoroethanol] |  | 17 nM |
| COc1ncc(Nc2ncc(C(C)CO)cc2-c2nc(C)nc(N)n2)cc1F (stereo not drawn) [Example 312, 2-(5-(4-amino-6-methyl-1,3,5-triazin-2-yl)-6-(5-fluoro-6-methoxypyridin-3-ylamino)pyridin-3-yl)propan-1-ol] |  | 2 nM |
| Cc1nc(N)nc(-c2cc(CN3CCOCC3)cnc2Nc2cnc(Cl)c(NS(=O)(=O)N(C)C)c2)n1 [Example 333, N′-(5-((3-(4-Amino-6-Methyl-1,3,5-Triazin-2-yl)-5-(4-Morpholinylmethyl)-2-Pyridinyl)Amino)-2-Chloro-3-Pyridinyl)-N,N-Dimethylsulfamide] |  | 7 nM |
| Nc1cc(-c2cccnc2Nc2cccc3[nH]ncc23)nc(C(F)(F)F)n1 [Example 21, N-(3-(6-Amino-2-(Trifluoromethyl)Pyrimidin-4-yl)Pyridin-2-yl)-1H-Indazol-4-Amine] |  | 3140 nM |
| COc1ccc(Nc2nccnc2-c2nc(C)nc(N)n2)cn1 [Example 114, 4-(3-(6-methoxypyridin-3-ylamino)pyrazin-2-yl)-6-methyl-1,3,5-triazin-2-amine] |  | 327 nM |
| COc1cncc(Nc2ncc(C(C)(C)O)cc2-c2nc(C)nc(N)n2)c1 [Example 353, 2-(5-(4-Amino-6-Methyl-1,3,5-Triazin-2-yl)-6-(5-Methoxypyridin-3-Ylamino)Pyridin-3-yl)Propan-2-ol] |  | 15 nM |
| Cc1nc(N)nc(-c2cc(CN3CCOCC3)cnc2Nc2cnc(Cl)c(NS(C)(=O)=O)c2)n1 [Example 332, N-(5-(3-(4-Amino-6-Methyl-1,3,5-Triazin-2-yl)-5-(Morpholinomethyl)Pyridin-2-Ylamino)-2-Chloropyridin-3-yl)Methanesulfonamide] |  | 4 nM |
| COc1ccc(Nc2nccnc2-c2cc(N)nc(C)n2)cn1 [Example 116, 6-(3-(6-methoxypyridin-3-ylamino)pyrazin-2-yl)-2-methylpyrimidin-4-amine] |  | 59 nM |
| Cc1nc(N)cc(-c2cc(C(C)N3CCOCC3)cnc2Nc2cnc(Cl)c(NS(=O)(=O)N(C)C)c2)n1 (stereo not drawn) [Example 379, N-(2-Chloro-5-(3-(6-Amino-2-Methylpyrimidin-4-yl)-5-(1-Morpholinoethyl)Pyridin-2-Ylamino)Pyridin-3-yl)-N,N-Dimethylaminosulfamide] | 46 nM |  |
| COc1cc(Nc2ncccc2-c2nc(C)nc(N)n2)ccc1F [Example 167, 4-(2-(4-Fluoro-3-Methoxyphenylamino)Pyridin-3-yl)-6-Methyl-1,3,5-Triazin-2-Amine] | 1160 nM |  |
